Patent publication US9718790B2, “Triazine derivative and pharmaceutical composition having an analgesic activity comprising the same” (SHIONOGI & CO., LTD., priority 2010, dated 2017)

What follows are compounds tested against human P2X3 receptor (Homo sapiens (Human), UniProt P56373) (assay: Evaluation of human P2X3 receptor inhibitory activity (Fluo-3 calcium fluorescence, FDSS 3000, ATP stimulation)). Settings: C6BU-1 cells stably expressing human P2X3 receptor.
Format: cell-based
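Note: stimulus was 50 nM ATP with fluorescence followed for 3 min, and the response per well was peak post-ATP fluorescence divided by the reading at measurement start.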

human P2X3 receptor, sequence (P56373 whole entry): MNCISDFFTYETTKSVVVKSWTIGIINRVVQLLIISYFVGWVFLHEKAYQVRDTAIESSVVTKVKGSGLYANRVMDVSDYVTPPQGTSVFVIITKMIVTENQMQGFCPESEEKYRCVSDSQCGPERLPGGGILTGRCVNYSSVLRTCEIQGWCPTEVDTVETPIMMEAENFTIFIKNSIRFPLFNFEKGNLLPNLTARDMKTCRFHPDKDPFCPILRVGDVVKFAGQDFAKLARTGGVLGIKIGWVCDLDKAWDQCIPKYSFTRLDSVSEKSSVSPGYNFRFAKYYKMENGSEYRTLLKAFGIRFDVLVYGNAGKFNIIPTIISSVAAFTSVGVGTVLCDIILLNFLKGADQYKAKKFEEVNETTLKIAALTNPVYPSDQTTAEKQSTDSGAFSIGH

| Structure (SMILES) | IC50 [nM] |
| --- | --- |
| CC(C)Oc1ccc(/N=c2\[nH]c(=O)n(Cc3ccc[nH]c3=O)c(=O)n2Cc2ccc(Cl)cc2)cc1F [Compound I-0685] | 8 |
| Cc1ccc(Cn2c(=O)n(CCC(=O)O)c(=O)[nH]/c2=N\c2cccc(Cl)c2F)cc1 [Compound I-2054] | 611 |
| C[C@@H](Oc1ccc(/N=c2\[nH]c(=O)n(CCC(=O)NCCO)c(=O)n2Cc2ccc(Cl)cc2)cc1)C(F)(F)F [Compound I-1998] | 34 |
| COc1cc(/N=c2\[nH]c(=O)n(C[C@H](C)C(=O)O)c(=O)n2Cc2ccc(C)cc2)ccc1CC(C)C [Compound I-1261] | 18 |
| CCOC(=O)CCn1c(=O)[nH]/c(=N\c2ccc(CC(C)C)c(F)c2)n(Cc2ccc(C)cc2)c1=O [Compound I-1298] | 26 |
| COC(=O)[C@@H](C)Cn1c(=O)[nH]/c(=N\c2cnc(OC3CCC3)c(C)c2)n(Cc2ccc(C)cc2)c1=O [Compound I-1478] | 19 |
| COc1cc(/N=c2\[nH]c(=O)n(C[C@H](C)C(=O)O)c(=O)n2Cc2ccc(Cl)cc2)ccc1CC(C)C [Compound I-1270] | 12 |
| O=C(O)CCn1c(=O)[nH]/c(=N\c2ccc(Oc3ccncc3)cc2)n(Cc2ccc(Cl)cc2)c1=O [Compound I-1207] | 15 |
| CC(C)Oc1ccc(/N=c2\[nH]c(=O)n(CCc3ncn[nH]3)c(=O)n2Cc2ccc(Cl)cc2)cc1F [Compound I-0672, 1-(4-chlorobenzyl)-6-(3-fluoro-4-isopropoxyphenylimino)-3-[2-(1,2,4-triazol-5-yl)ethyl]-1,3,5-triazinane-2,4-dion] | 8 |
| CCn1c(=O)[nH]/c(=N\c2ccc(Oc3ccc(C(=O)OC)cc3)cc2)n(Cc2ccc(C)cc2)c1=O [Compound I-2029] | 4 |
| CCOc1ccc(/N=c2\[nH]c(=O)n(C[C@H](C)C(=O)OC)c(=O)n2Cc2ccc(Cl)cc2)cc1F [Compound I-0602] | 20 |
| CCOC(=O)c1sc(Oc2ccc(/N=c3\[nH]c(=O)n(CC)c(=O)n3Cc3ccc(Cl)cc3)cc2)nc1C [Compound I-2147] | 14 |
| CNC(=O)Cn1c(=O)[nH]/c(=N\c2ccc(Oc3ccnc(O)c3)cc2)n(Cc2ccc(Cl)cc2)c1=O [Compound I-1978] | 5 |
| Cc1ccc(Cn2c(=O)n(C[C@H](C)C(=O)O)c(=O)[nH]/c2=N\c2ccc(N3CCCCCC3)cc2)cc1 [Compound I-1237] | 183 |
| O=C(O)c1cc(Oc2ccc(/N=c3\[nH]c(=O)n(CCO)c(=O)n3Cc3ccc(Cl)cc3)cc2)no1 [Compound I-2117] | 23 |
| CC(C)Oc1ccc(/N=c2\[nH]c(OCC(=O)NCCO)nc(=O)n2Cc2ccc(Cl)cc2)cc1F [Compound I-0582] | 365 |
| CCOC(=O)CCn1c(=O)[nH]/c(=N\c2ccc(Oc3cccnc3)cc2)n(Cc2ccc(Cl)cc2)c1=O [Compound I-1204] | 5 |
| Cc1ccc(Cn2c(=O)n([C@H](C)[C@H](C)C(=O)O)c(=O)[nH]/c2=N\c2ccc(OC(C)C)c(C)c2)cc1 [Compound I-1339] | 30 |
| Cc1cc(/N=c2\[nH]c(=O)n(Cc3cc(C(=O)O)no3)c(=O)n2Cc2ccc(Cl)cc2)ccc1OC(C)C [Compound I-0802] | 21 |
| Cc1cc(Oc2ccc(/N=c3\[nH]c(=O)n(CC(N)=O)c(=O)n3Cc3ccc(Cl)cc3)cc2)ccn1 [Compound I-1926] | 10 |
| C[C@@H](Cn1c(=O)[nH]/c(=N\c2ccc3c(c2)CCO3)n(Cc2ccc(Cl)cc2)c1=O)C(=O)O [Compound I-0773] | 790 |
| CC(C)Oc1ccc(/N=c2\[nH]c(=O)n(Cc3ccc(=O)[nH]c3)c(=O)n2Cc2ccc(Cl)cc2)cc1F [Compound I-0649] | 21 |
| CC(C)Oc1ccc(/N=c2\[nH]c(=O)n(C(C)(C)CC(=O)O)c(=O)n2Cc2ccc(Cl)cc2)cc1Cl [Compound I-0817] | 27 |
| C[C@@H](Cn1c(=O)[nH]/c(=N\c2cccc(C(F)(F)F)c2)n(Cc2ccc(Cl)cc2)c1=O)C(=O)O [Compound I-0628] | 61 |
| COC(=O)[C@@H](C)Cn1c(=O)[nH]/c(=N\c2ccc3nc(C)sc3c2)n(Cc2ccc(Cl)cc2)c1=O [Compound I-1321] | 7 |
| Cc1ccc(Cn2c(=O)n(C[C@H](C)C(=O)O)c(=O)[nH]/c2=N\c2ccc(NS(C)(=O)=O)cc2)cc1 [Compound I-1417] | 207 |
| CCn1c(=O)[nH]/c(=N\c2ccc(Oc3ccnc(O)n3)cc2)n(Cc2ccc(Cl)cc2)c1=O [Compound I-2016] | 5 |
| COC(=O)[C@@H](C)Cn1c(=O)[nH]/c(=N\c2ccc(Oc3ccnc(C)c3)cc2)n(Cc2ccc(C)cc2)c1=O [Compound I-1274] | 6 |
| COC(=O)[C@@H](C)Cn1c(=O)[nH]/c(=N\c2ccc(OCC(C)C)cc2)n(Cc2ccc(C)cc2)c1=O [Compound I-0812] | 33 |

Same assay, conditions: C6BU-1 cells stably expressing human P2X3 receptor, Fluo-3 fluorescence, FDSS 3000

| Structure (SMILES) | IC50 [nM] |
| --- | --- |
| CC1CCC(Cn2c(=O)n(CCC(=O)O)c(=O)[nH]/c2=N\c2ccc(OC(C)C)c(F)c2)CC1 (stereo not shown) [Compound I-1750] | 21 |
| CCOC(=O)CCn1c(=O)[nH]/c(=N\c2ccc(OCC3CC3)c(Cl)c2)n(Cc2ccc(C)cc2)c1=O [Compound I-0957] | 25 |
| CCOc1ccc(/N=c2\[nH]c(=O)n(CC(CO)CO)c(=O)n2Cc2ccc(Cl)cc2)cc1Cl [Compound I-1906] | 6 |
| COC(=O)[C@@H](C)Cn1c(=O)[nH]/c(=N\c2ccc(OC3CCOCC3)nc2)n(Cc2ccc(C)cc2)c1=O [Compound I-1118] | 387 |
| CNC(=O)[C@@H](C)Cn1c(=O)[nH]/c(=N\c2ccc(Oc3ccc(O)nc3)cc2)n(Cc2ccc(C)cc2)c1=O [Compound I-1601] | 24 |
| C[C@@H](C(=O)O)[C@H](C)n1c(=O)[nH]/c(=N\c2ccc3[nH]c(=O)[nH]c(=O)c3c2)n(Cc2ccc(Cl)cc2)c1=O [Compound I-1818] | 829 |
| Cc1cc(/N=c2\[nH]c(=O)n(CC3COC(C)(C)OC3)c(=O)n2Cc2ccc(Cl)cc2)ccc1OC(C)C [Compound I-1899] | 4 |
| COC(=O)[C@@H](C)Cn1c(=O)[nH]/c(=N\c2ccc(OC3CCC3)nc2)n(Cc2ccc(C)cc2)c1=O [Compound I-1187] | 58 |
| CCOC(=O)CCn1c(=O)[nH]/c(=N\c2ccc(OC3CC3)c(Cl)c2)n(Cc2ccc(C)cc2)c1=O [Compound I-1606] | 15 |
| COc1ccc(Oc2ccc(/N=c3\[nH]c(=O)n(CCCO)c(=O)n3Cc3ccc(Cl)cc3)cc2)cn1 [Compound I-1733] | 3 |

Same assay, conditions: human P2X3 receptor, Test Example 1

| Structure (SMILES) | IC50 [nM] |
| --- | --- |
| COc1cc(/N=c2\[nH]c(=O)n(C)c(=O)n2Cc2ccc(Cl)cc2)ccc1Oc1cccc(C#N)n1 [Compound I-2390] | 7 |
| Cc1cnc(Oc2ccc(/N=c3\[nH]c(=O)n(CC(N)=O)c(=O)n3Cc3ccc(Cl)cc3)cc2)s1 [Compound I-2647] | 16 |
| CNC(=O)Cn1c(=O)[nH]/c(=N\c2ccc(Oc3ccnnc3)cc2)n(Cc2ccc(Cl)cc2)c1=O [Compound I-2696] | 8 |
| CCn1c(=O)[nH]/c(=N\c2ccc(Oc3ccnc(C(=O)NC)c3)c(OC)c2)n(Cc2ccc(Cl)cc2)c1=O [Compound I-2251] | 5 |
| CCn1c(=O)[nH]/c(=N\c2ccc(Oc3cncc(C(=O)O)c3)cc2)n(C[C@H]2CC[C@H](C)CC2)c1=O [Compound I-2352] | 6 |
| COC(=O)c1cc(Oc2ccc(/N=c3\[nH]c(=O)n(C)c(=O)n3Cc3ccc(Cl)cc3)cc2)ccn1 [Compound I-2377] | 15 |
| Cc1cc(Oc2ccc(/N=c3\[nH]c(=O)n(CC(CO)CO)c(=O)n3Cc3ccc(Cl)cc3)cc2)no1 [Compound I-2353] | 8 |
| O=c1[nH]/c(=N\c2ccc(Oc3cncc(F)c3)cc2)n(Cc2ccc(Cl)cc2)c(=O)n1C[C@H](O)CO [Compound I-2334] | 5 |
| CC(=O)Nc1cc(Oc2ccc(/N=c3\[nH]c(=O)[nH]c(=O)n3Cc3ccc(Cl)cc3)cc2)ccn1 [Compound I-2430] | 48 |
| Cn1c(=O)[nH]/c(=N\c2ccc(Oc3ccc(C(=O)O)cn3)cc2)n(Cc2ccc(Cl)cc2)c1=O [Compound I-2442] | 18 |
| CCn1c(=O)[nH]/c(=N\c2ccc(Oc3cnc(C#N)nc3)cc2)n(Cc2ccc(Cl)cc2)c1=O [Compound I-2281] | 2 |
| N#Cc1cccc(Oc2ccc(/N=c3\[nH]c(=O)n(CCC(=O)O)c(=O)n3Cc3ccc(Cl)cc3)cc2)n1 [Compound I-2667] | 10 |
| CCn1c(=O)[nH]/c(=N\c2ccc(Oc3ccn[nH]3)cc2)n(Cc2ccc(Cl)cc2)c1=O [Compound I-2455] | 63 |
| CCn1c(=O)[nH]/c(=N\c2ccc(Oc3cccc(CCC(=O)OC)c3)cc2)n(Cc2ccc(Cl)cc2)c1=O [Compound I-2225] | 61 |
| COC(=O)[C@@H](C)Cn1c(=O)[nH]/c(=N\c2ccc(C3CC3)c(C3CC3)c2)n(Cc2ccc(C)cc2)c1=O [Compound I-1488] | 652 |
| CCn1c(=O)[nH]/c(=N\c2ccc(Oc3cccc(C#N)n3)cc2)n(Cc2ccc(Cl)cn2)c1=O [Compound I-2373] | 33 |
| CCn1c(=O)[nH]/c(=N\c2ccc(Oc3cncc(C(=O)O)n3)cc2)n(Cc2ccc(Cl)cc2)c1=O [Compound I-2282] | < 4 |
| CC(CO)(CO)Cn1c(=O)[nH]/c(=N\c2ccc(Oc3ccsn3)cc2)n(Cc2ccc(Cl)cc2)c1=O [Compound I-2531] | 4 |
| CC(C)Oc1ccc(/N=c2\[nH]c(=O)n(C(C)(C)CC(=O)O)c(=O)n2Cc2ccc(Cl)cc2)cc1F [Compound I-0830] | 89 |
| CCOC(=O)C(F)(F)Cn1c(=O)[nH]/c(=N\c2ccc(OC(C)C)c(C)c2)n(Cc2ccc(C)cc2)c1=O [Compound I-0855] | 10 |
| CC(CO)(CO)Cn1c(=O)[nH]/c(=N\c2ccc(Oc3ccon3)cc2)n(Cc2ccc(F)cc2)c1=O [Compound I-2399] | 20 |
| CCn1c(=O)[nH]/c(=N\c2ccc(Oc3cccc(C(N)=O)n3)cc2)n(Cc2ccc(F)cc2)c1=O [Compound I-2495] | 21 |
| CNC(=O)Cn1c(=O)[nH]/c(=N\c2ccc(Oc3ncc(C)s3)cc2)n(Cc2ccc(Cl)cc2)c1=O [Compound I-2648] | 14 |
| CC[C@@H](Cn1c(=O)[nH]/c(=N\c2ccc(OC(C)C)c(C)c2)n(Cc2ccc(C)cc2)c1=O)C(=O)OC [Compound I-0884] | 16 |
| COC(=O)C[C@@H](C)n1c(=O)[nH]/c(=N\c2ccc(OC(C)C)c(Cl)c2)n(Cc2ccc(C)cc2)c1=O [Compound I-0875] | 14 |
